Test results taken from US7279491B2 (Janssen Pharmaceutica N.V., priority 2002, dated 2007).
pKi: −log10 of the molar value.

Molecular target: T1, human histamine H3 receptor (Homo sapiens, UniProt Q9Y5N1)
T1 construct: One microgram of supercoiled H3 receptor cDNA was added to the cells and mixed; expressed in transfected cells; membranes
Assay: {3H}-N-methylhistamine binding to membranes of histamine H3 receptor-expressing SK-N-MC cells
Conditions: 0.8 nM {3H}-N-methylhistamine, 45 min at 25° C., Ki=(IC50)/(1+({L}/(Kd)), Kd 800 pM)
Protocol: Transfection of Cells with Human Histamine Receptor
A 10 cm tissue culture dish with a confluent monolayer of SK-N-MC cells was split two days prior to transfection. Using sterile technique the media was removed and the cells were detached from the dish by the addition of trypsin. One fifth of the cells were then placed onto a new 10 cm dish. Cells were grown in a 37° C. incubator with 5% CO2 in Minimal Essential Media Eagle with 10% Fetal Bovine Serum. After two days cells were approximately 80% confluent. These were removed from the dish with trypsin and pelleted in a clinical centrifuge. The pellet was then re-suspended in 400 μL complete media and transferred to an electroporation cuvette with a 0.4 cm gap between the electrodes. One microgram of supercoiled H3 receptor cDNA was added to the cells and mixed. The voltage for the electroporation was set at 0.25 kV, the capacitance was set at 960 μF. After electroporation the cells were diluted into 10 mL complete media and plated onto four 10 cm dishes. Because of the variability in the efficiency of electroporation, four different concentrations of cells were plated. The ratios used were; 1:20, 1:10, 1:5, with the remainder of the cells being added to the fourth dish. The cells were allowed to recover for 24 h before adding the selection media (complete media with 600 μg/mL G418). After 10 days dishes were analyzed for surviving colonies of cells. Dishes with well-isolated colonies were used. Cells from individual colonies were isolated and tested. SK-N-MC cells were used because they give efficient coupling for inhibition of adenylate cyclase. The clones that gave the most robust inhibition of adenylate cyclase in response to histamine were used for further study.
{^3H}-N-methylhistamine Binding
Cell pellets from histamine H3 receptor-expressing SK-N-MC cells were homogenized in 20 mM Tris HCl/0.5 mM EDTA. Supernatants from an 800 g spin were collected, recentrifuged at 30,000 g for 30 min. Pellets were re-homogenized in 50 mM Tris/5 mM EDTA (pH 7.4). Membranes were incubated with 0.8 nM {^3H}-N-methylhistamine plus/minus test compounds for 45 min at 25° C. and harvested by rapid filtration over GF/C glass fiber filters (pretreated with 0.3% polyethylenimine) followed by four washes with ice-cold buffer. Filters were dried, added to 4 mL scintillation cocktail and then counted on a liquid scintillation counter. Non-specific binding was defined with 10 μM histamine. The pKi values were calculated based on a Kd of 800 pM and a ligand concentration ({L}) of 800 pM according to the formula: Ki=(IC50)/(1+({L}/(Kd))

T1 sequence (Q9Y5N1 whole entry): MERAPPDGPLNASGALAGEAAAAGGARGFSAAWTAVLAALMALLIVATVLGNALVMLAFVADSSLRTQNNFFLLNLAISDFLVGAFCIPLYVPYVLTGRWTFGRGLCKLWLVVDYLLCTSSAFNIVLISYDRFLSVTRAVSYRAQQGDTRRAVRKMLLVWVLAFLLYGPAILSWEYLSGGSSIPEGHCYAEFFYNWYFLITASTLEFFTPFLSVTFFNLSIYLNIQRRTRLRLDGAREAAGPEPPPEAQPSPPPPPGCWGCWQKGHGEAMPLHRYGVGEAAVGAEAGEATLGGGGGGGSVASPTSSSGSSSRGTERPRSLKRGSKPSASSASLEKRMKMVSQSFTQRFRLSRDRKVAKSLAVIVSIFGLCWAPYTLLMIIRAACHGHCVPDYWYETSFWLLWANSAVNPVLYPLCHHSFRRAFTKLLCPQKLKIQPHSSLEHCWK

SMILES | pKi
c1ccc(N2CCC(CN3CCCC3)CC2)c(CN2CCOCC2)c1 [Example 43, 4-{2-(4-Pyrrolidin-1-ylmethyl-piperidin-1-yl)-benzyl}-morpholine] | 5.32
FC(F)(F)c1cc(N2CCC(CN3CCCC3)CC2)ccc1CN1CCCCC1 [Example 72, 1-[4-(4-Pyrrolidin-1-ylmethyl-piperidin-1-yl)-2-trifluoromethyl-benzyl]-piperidine] | 8.10
c1ccc(NCC2CCN(c3ccc(CN4CCCC4)cc3)CC2)cc1 [Example 55, Phenyl-{1-(4-pyrrolidin-1-ylmethyl-phenyl)-piperidin-4-ylmethyl}-amine] | 8.10
FC(F)(F)c1cc(N2CCC(CN3CCCC3)CC2)ccc1CN1CCOCCOCCOCCOCC1 [Example 81, 13-[4-(4-pyrrolidin-1-ylmethyl-piperidin-1-yl)-2-trifluoromethyl-benzyl]-1,4,7,10-tetraoxa-13-aza-cyclopentadecane Ditrifluoromethanesulfonate] | 7.47
c1ccc(NCc2ccc(N3CCC(N4CCCCC4)CC3)cc2)nc1 [Example 54, (4-{1,4′}Bipiperidinyl-1′-yl-benzyl)-pyridin-2-yl-amine] | 8.08
CN1CCN(C2CCN(c3ccc(CN4CCOCC4)cc3)CC2)CC1 [Example 48, 4-{4-{4-(4-Methyl-piperazin-1-yl)-piperidin-1-yl}-benzyl}-morpholine] | 6.00
Fc1ccc(NCc2ccc(N3CCC(CN4CCCC4)CC3)cc2)cc1 [Example 59, (4-Fluoro-phenyl)-{4-(4-pyrrolidin-1-ylmethyl-piperidin-1-yl)-benzyl}-amine] | 7.32
c1cc(N2CCC(CN3CCCC3)CC2)ccc1CN1CCOCC1 [Example 41, 4-{4-(4-Pyrrolidin-1-ylmethyl-piperidin-1-yl)-benzyl}-morpholine] | 7.92
CCN(C)C1CCN(c2ccc(CN3CCOCC3)cc2)CC1 [Example 49, Ethyl-methyl-{1-(4-morpholin-4-ylmethyl-phenyl)-piperidin-4-yl}-amine] | 7.85
FC(F)(F)c1cc(CN2CCC(N3CCCC3)CC2)ccc1N1CCC(CN2CCCC2)CC1 [Example 76, 1-{1-[4-(4-Pyrrolidin-1-yl-piperidin-1-ylmethyl)-2-trifluoromethyl-phenyl]-piperidin-4-ylmethyl}-pyrrolidine] | 8.05
O=[N+]([O-])c1cc(CN2CCOCC2)ccc1N1CCC(CN2CCCC2)CC1 [Example 70, 4-[3-Nitro-4-(4-pyrrolidin-1-ylmethyl-piperidin-1-yl)-benzyl]-morpholine] | 7.44
c1cc(CN2CCOCC2)cc(N2CCC(CN3CCCC3)CC2)c1 [Example 33, 4-{3-(4-Pyrrolidin-1-ylmethyl-piperidin-1-yl)-benzyl}-morpholine] | 7.70
c1ccc(N2CCC(CN3CCCCC3)CC2)c(CN2CCOCC2)c1 [Example 22, 4-{2-(4-piperidin-1-ylmethyl-piperidin-1-yl)-benzyl}-morpholine] | 5.35
CN1CCN(Cc2ccc(N3CCC(CN4CCCC4)CC3)cc2)CC1 [Example 39, 1-Methyl-4-{4-(4-pyrrolidin-1-ylmethyl-piperidin-1-yl)-benzyl}-piperazine] | 8.22
Fc1cc(CN2CCC(c3ccccc3)CC2)ccc1N1CCC(CN2CCCC2)CC1 [Example 78, 1-{1-[2-Fluoro-4-(4-phenyl-piperidin-1-ylmethyl)-phenyl]-piperidin-4-ylmethyl}-pyrrolidine] | 8.15
OCC1CCN(Cc2ccc(N3CCC(CN4CCCC4)CC3)c(C(F)(F)F)c2)CC1 [Example 82, {1-[4-(4-Pyrrolidin-1-ylmethyl-piperidin-1-yl)-3-trifluoromethyl-benzyl]-piperidin-4-yl}-methanol] | 6.77
c1cc(N2CCC(N3CCOCC3)CC2)ccc1CN1CCOCC1 [Example 50, 4-{1-(4-Morpholin-4-ylmethyl-phenyl)-piperidin-4-yl}-morpholine] | 6.57
Cc1cc(CN2CCCCC2)ccc1N1CCC(CN2CCCC2)CC1 [Example 75] | 8.22
c1cc(N2CCC(N3CCCC3)CC2)ccc1CN1CCOCC1 [Example 51, 4-{4-(4-Pyrrolidin-1-yl-pieridin-1-yl)-benzyl}-morpholine] | 7.77

The next lines start with the values.

pKi | SMILES
9.00 | Cc1cc(CN2CCCC2)ccc1N1CCC(CN2CCCC2)CC1 [Example 74]
9.00 | c1cc(N2CCC(CN3CCCCC3)CC2)ccc1CN1CCCC1 [Example 30, 1-{1-(4-Pyrrolidin-1-ylmethyl-phenyl)-piperidin-4-ylmethyl}-piperidine]
8.24 | CN(C1CCCCC1)C1CCN(c2ccc(CN3CCOCC3)cc2)CC1 [Example 47, Cyclohexyl-methyl-{1-(4-morpholin-4-ylmethyl-phenyl)-piperidin-4-yl}-amine]
8.85 | CN1CCN(CC2CCN(c3ccc(CN4CCCC4)cc3)CC2)CC1 [Example 27, 1-Methyl-4-{1-(4-pyrrolidin-1-ylmethyl-phenyl)-piperidin-4-ylmethyl}-piperazine]
9.10 | CCN(CC)CC1CCN(c2ccc(CN3CCCC3)cc2)CC1 [Example 25, Diethyl-{1-(4-pyrrolidin-1-ylmethyl-phenyl)-piperidin-4-ylmethyl}-amine]
9.10 | CCN(CC)CCC1CCN(c2ccc(CN3CCCCC3)cc2)C1 (stereo not shown) [Example 61, Diethyl-{2-{1-(4-piperidin-1-ylmethyl-phenyl)-pyrrolidin-3-yl}-ethyl}-amine]
8.52 | c1ccc(NCC2CCN(c3ccc(CN4CCCC4)cc3)CC2)nc1 [Example 56, Pyridin-2-yl-{1-(4-pyrrolidin-1-ylmethyl-phenyl)-piperidin-4-ylmethyl}-amine]
8.77 | CN(C)CC1CCN(c2ccc(CN3CCCC3)cc2)CC1 [Example 26, Dimethyl-{1-(4-pyrrolidin-1-ylmethyl-phenyl)-piperidin-4-ylmethyl}-amine]
8.89 | CN(CCc1ccccc1)CCC1CCN(c2ccc(CN3CCCCC3)cc2)C1 (stereo not shown) [Example 62, Methyl-phenethyl-{2-{1-(4-piperidin-1-ylmethyl-phenyl)-pyrrolidin-3-yl}-ethyl}-amine]
8.96 | c1cc(N2CCC(CCN3CCOCC3)C2)ccc1CN1CCCCC1 (stereo not shown) [Example 60, 4-{2-{1-(4-Piperidin-1-ylmethyl-phenyl)-pyrrolidin-3-yl}-ethyl}-morpholine]
8.30 | CN(C)Cc1ccc(N2CCC(CN3CCCC3)CC2)cc1 [Example 42, Dimethyl-{4-(4-pyrrolidin-1-ylmethyl-piperidin-1-yl)-benzyl}-amine]
8.40 | Fc1cc(CN2CCCCC2)ccc1N1CCC(CN2CCCC2)CC1 [Example 80, 1-[3-Fluoro-4-(4-pyrrolidin-1-ylmethyl-piperidin-1-yl)-benzyl]-piperidine]
8.60 | c1cc(N2CCC(CN3CCCCC3)CC2)ccc1CN1CCCCC1 [Example 57, 1-{1-(4-Piperidin-1-ylmethyl-phenyl)-piperidin-4-ylmethyl}-piperidine]
8.30 | OC1CCN(Cc2ccc(N3CCC(CN4CCCC4)CC3)cc2)CC1 [Example 38, 1-{4-(4-Pyrrolidin-1-ylmethyl-piperidin-1-yl)-benzyl}-piperidin-4-ol]
8.40 | CN(C)Cc1ccc(N2CCC(CN3CCCC3)CC2)c(F)c1 [Example 79, [3-Fluoro-4-(4-pyrrolidin-1-ylmethyl-piperidin-1-yl)-benzyl]-dimethyl-amine]
8.40 | c1cc(N2CCC(CN3CCCC3)CC2)ccc1CN1CCSCC1 [Example 40, 4-{4-(4-Pyrrolidin-1-ylmethyl-piperidin-1-yl)-benzyl}-thiomorpholine]
8.70 | c1cc(N2CCC(CN3CCCC3)CC2)ccc1CNC1CCCCC1 [Example 37, Cyclohexyl-{4-(4-pyrrolidin-1-ylmethyl-piperidin-1-yl)-benzyl}-amine]
9.10 | OC1CCN(CC2CCN(c3ccc(CN4CCCC4)cc3)CC2)CC1 [Example 28, 1-{1-(4-Pyrrolidin-1-ylmethyl-phenyl)-piperidin-4-ylmethyl}-piperidin-4-ol]
8.30 | c1cc(N2CCC(CN3CCOCC3)CC2)ccc1CN1CCCCC1 [Example 44, 4-{1-(4-Piperidin-1-ylmethyl-phenyl)-piperidin-4-ylmethyl}-morpholine]
8.22 | c1cc(CN2CCCC2)cc(N2CCC(CN3CCCC3)CC2)c1 [Example 34, 4-Pyrrolidin-1-ylmethyl-1-(3-pyrrolidin-1-ylmethyl-phenyl)-piperidine]
8.70 | c1cc(N2CCC(CN3CCOCC3)CC2)ccc1CN1CCCC1 [Example 31, 4-{1-(4-Pyrrolidin-1-ylmethyl-phenyl)-pieridin-4-ylmethyl}-morpholine]
